{"source": "patent US7625713B2", "about": "“Process for identifying a ligand that binds to the NEP binding site for the SMR1 pentapeptide” (Institut Pasteur, priority 2000, dated 2009)", "biological_target": "T1, NEP (Rattus norvegicus, UniProt P07861)", "T1 construct": "incubations of membrane and fresh tissue slice preparations from nervous tissues; from tissue; host or cells: dorsal spinal cord of male Wistar rats (fresh slices or 100 000 x g membrane fraction)", "T1 sequence (P07861 1-750)": "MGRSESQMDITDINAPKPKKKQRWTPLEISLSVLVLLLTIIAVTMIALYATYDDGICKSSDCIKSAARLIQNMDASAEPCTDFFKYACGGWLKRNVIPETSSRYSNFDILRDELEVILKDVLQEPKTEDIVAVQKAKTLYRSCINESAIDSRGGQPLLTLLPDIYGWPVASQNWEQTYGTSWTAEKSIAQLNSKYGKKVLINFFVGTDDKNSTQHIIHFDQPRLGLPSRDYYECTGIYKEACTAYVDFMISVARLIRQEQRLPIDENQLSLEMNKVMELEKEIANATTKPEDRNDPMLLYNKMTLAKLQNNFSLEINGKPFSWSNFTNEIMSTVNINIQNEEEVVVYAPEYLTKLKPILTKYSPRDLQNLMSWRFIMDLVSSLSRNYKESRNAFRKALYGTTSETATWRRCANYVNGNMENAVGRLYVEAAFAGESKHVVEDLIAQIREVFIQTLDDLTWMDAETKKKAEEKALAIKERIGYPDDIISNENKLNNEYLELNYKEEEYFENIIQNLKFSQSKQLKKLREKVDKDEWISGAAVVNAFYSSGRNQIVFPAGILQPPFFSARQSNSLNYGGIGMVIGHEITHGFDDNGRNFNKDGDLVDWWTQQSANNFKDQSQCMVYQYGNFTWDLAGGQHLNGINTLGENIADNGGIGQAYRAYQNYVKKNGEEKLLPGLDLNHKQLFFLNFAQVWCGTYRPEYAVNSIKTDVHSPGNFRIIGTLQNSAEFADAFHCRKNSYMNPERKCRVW", "assay": "Met-enkephalinase activity of rat spinal cord slices, Met-enkephalin RIA", "assay_type": "biochemical", "settings": "10 μM, fresh spinal cord tissue, 20 min at 25° C.", "method": "FIG. 2-A: […] The organs are rapidly removed, dissected on ice, freed of nerve fibers and of adipose tissues and then washed in cold oxygenated glucose- and bicarbonate-containing Krebs Ringer (KRBG) solution, whose composition is the following: 120 mM NaCl-5 mM KCl-1.2 mM KH2PO4-27.5 mM NaHCO3-2.6 mM CaCl2-0.67 mM MgSO4-5.9 mM glucose. The slices of tissues are prepared either manually with the aid of a scalpel (1-2 mm thick), or mechanically with the aid of a “Tissue Chopper” (1 mm thick). Slices are then dispersed into reaction tubes where they are subjected to three successive washes in ice-cold oxygenated KRBG. […] For the experiments of analysis of the NEP peptidase activity, an ex vivo model using incubations of membrane and fresh tissue slice preparations from nervous tissues that are known to be appropriate for exploring NEP peptidase activity: i.e. the dorsal zone of rat spinal cord, was first developed. The metabolism rate of the NEP-sensitive peptides was measured using the both NEP substrates involved in the signaling of the nociceptive response: the neuropeptides Met-enkephalin and Substance P. […] (NEN, 12.5-25 nM) were used. The objective was to measure the NEP-specific endoproteolysis of these substrates. […] Furthermore, for studying the functional role of […] NO: 2), the reaction was carried out in the presence of the SMR1-peptide alone or combined with specific inhibitors of membrane peptidases which could inactivate the […] […] Herein, a competitive RIA system has been used: the quantity of radioactive antigen bound to the antibody decreases in a manner inversely proportional to the quantity of antigen contained in the standard solution or in the sample. […] The activity of enkephalinase NEP is monitored by quantification of the disappearance of the initial Met-enkephalin substrate. […] The radiolabeled antigen is iodinated Met-enkephalin (^125I-Met-Enk enkephalin) with a specific radioactivity estimated at 3000 Ci/mmol. […] After centrifugation, the bound radioactivity of the precipitate is quantified using a gamma-spectrometer.", "note": "Where a SMILES comes first, the peptide text is derived from it."}
{"smiles": "N=C(N)NCCC[C@H](NC(=O)[C@@H]1CCCN1C(=O)[C@H](CC(N)=O)NC(=O)[C@H](Cc1c[nH]cn1)NC(=O)[C@@H](N)CCC(N)=O)C(=O)O", "note": "[sialorphin, Gln-His-Asn-Pro-Arg] (H-QHNPR-OH; N-terminus and C-terminus assumed)", "values": [{"measurement": "protection of Met-enkephalin from degradation", "result": 96, "unit": "%"}]}
